Where no end group is shown, it is not given here.
Experiments:
Format in all cases: cell-based, human
[1] = tested on: minimal luciferase reporter (pGL3-TATA-Luc); test: TATA-containing minimal luciferase reporter assay in U2OS cells; details: 50 μM, 5 h
Experimental: DNA Transfection and Sequential β-Galactosidase/Luciferase Assay. For luciferase reporter assays, U2OS cells were cultured in 6-well dishes and transfected 24 h later with various reporter plasmids by the calcium precipitation method as previously described (Martin, K., et al. Nature 375, 691-694 (1995)). 24 h following precipitate removal, cells were exposed for 5 h to either vehicle (0.5% DMSO) or 50 μM of decoy peptide, prior to harvesting. Cells were scraped in 200 μl of lysis buffer and a single 10 μl aliquot of lysate was immediately used for sequential measurement of β-galactosidase and luciferase activity using the Dual Light System (Tropix). For protein overexpression experiments, U2OS cells were cultured in 6-well plates at a density of 1×10^5 cells/well and transfected 24 h later with Superfect reagent (QIAGEN).
FIG. 3: Analysis of E2F-responsive transcription in U2OS cells in response to decoy peptide treatment. (A) β-galactosidase/Luciferase assay of U2OS cells co-transfected with 0.1 μg of pCMV/β-galactosidase and 7.5 μg of the indicated luciferase reporter plasmids. Promoter activity of vehicle-treated samples was normalized to 100% and the activities of the peptide-treated samples were expressed relative to the vehicle-treated control. Values represent the average +/− standard deviation of at least two independent experiments; (B) Semi-quantitative RT-PCR analysis on total RNA for dhfr, cyclin-E, cyclin A2, PCNA, DNA Pola and cdc2 expression in U2OS cells exposed for 16 h to either vehicle (0.5% DMSO) or 50 μM of the indicated decoy peptides. H-actin was included as an internal control.
The PHD-bromodomain-interacting function of TRIP-Br proteins co-regulate E2F-dependent transcriptional activity in vivo. […] U2OS cells were chosen for this assay because they express functional E2F-1, DP-1, Rb and detectable levels of endogenous TRIP-Br1 (as assessed by Western blot analysis using a rabbit polyclonal anti-TRIP-Br1 antibody (Hsu, S. I. H., et al. EMBO J 20, 2273-2285 (2001)); data not shown). […]

U2OS cells = test: BrdU incorporation colorimetric ELISA in U2OS cells; details: for DNA synthesis activity (BrdU incorporation): U2OS, 50 μM, between 24 h and 48 h post-treatment; for ability to incorporate BrdU with increasing concentrations: U2OS, 5, 10, 20 or 50 μM, 48 h
Experimental: BrdU assay. U2OS cells grown in 96-well plates were exposed to either vehicle or decoy peptides. Bromodeoxyuridine (BrdU) incorporation was monitored with a colorimetric ELISA assay using a cell proliferation kit according to manufacturer's recommendations (Boehringer Mannheim).
FIG. 4: Time-dependent and dose-dependent anti-proliferative effects of the decoy peptides. (A) Time-dependent anti-proliferative effects of the decoy peptides. U2OS cells, exposed to either vehicle (0.5% DMSO) or 50 μM decoy peptides for either 24 or 48 h, were assayed for BrdU incorporation with a colorimetric ELISA assay. Values represent the average +/− standard deviation of two independent experiments; (B) Dose-dependent anti-proliferative effects of the decoy peptides. U2OS cells, exposed to 5, 10, 20 or 50 μM of *SCR (solid line and square), *Br1 (dashed line and triangle) or *Br2 (dashed line and circle) for 48 h, were assayed for BrdU incorporation with a colorimetric ELISA assay. Values represent the average +/− standard deviation of at least two independent experiments; (C) Cell proliferation analysis. Left panel: At 0, 48 and 72 h post decoy peptide treatment, total cell number was determined electronically using a Coulter® counter. Right panel: At 72 h post-treatment, cells were harvested and stained with trypan blue for viable cell count analysis.

[2] = tested on: caspase-3 protease activity; test: Caspase assay with Ac-DEVD-AFC in U2OS cells; details: 50 μM decoy peptides, 48 or 72 h
Experimental: Caspase assay. Both adherent and detached cells in 6-well dishes were harvested by centrifugation at 2000 rpm for 15 min at 4° C. The resulting cell pellets were incubated in 50 μl of chilled lysis buffer (Clontech) on ice for 10 min. Cell lysates were incubated in a reaction mix containing 10 mM HEPES, 2.0 mM EDTA, 10 mM KCl, 1.5 mM MgCl2, 1.0 mM PMSF, aprotinine, pepstatin A and leupeptine (20 μM each), 6.0 mM DTT and Ac-DEVD-AFC (4.0 μg/ml). Reactions were allowed to proceed at room temperature. Fluorescence readings were taken at 15 min intervals for 1 h using a spectrofluorometer (excitation wavelength: 400 nm; emission wavelength: 505 nm).
FIG. 6: Caspase assay. (A) Caspase 3 protease activity in U2OS cells exposed to either Eto (Etoposide) for 24 h or 50 μM decoy peptides for 48 or 72 h, were assayed using the Ac-DEVD-AFC fluorogenic substrate. […] Values represent the average +/− standard deviation of two independent experiments. Control: cells cultured in normal growth medium; Vehicle: cells cultured in the presence of 0.5% DMSO; (B) Western blot analysis of PARP cleavage. U2OS cells were exposed to either Eto (Etoposide) for 24 h or 50 μM decoy peptides for 72 h. Lane 1: Vehicle cells (cultured in the presence of 0.5% DMSO for 24 h); Lane 2: 25 μM Eto; Lane 3: 250 μM Eto; Lane 4: Vehicle (cells cultured in the presence of 0.5% DMSO for 72 h); Lane 5: *SCR; Lane 6: *Br1; Lane 7: *Br2.

| Sequence | transcriptional activity of the minimal reporter [1] | DNA synthesis activity (BrdU incorporation) (U2OS cells) | ability to incorporate BrdU with increasing concentrations (U2OS cells) | caspase-3 protease activity in cell lysates [2] |
| --- | --- | --- | --- | --- |
| ERQIKIWFQNRRMKWKKTGFLTDLTLDDILFADID (ERQIKIWFQNRRMKWKKTGFLTDLTLDDILFADID-NH2) [*Br2] | did not alter the transcriptional activity of the minimal reporter significantly | substantially reduced DNA synthesis activity | progressively reduced ability to incorporate BrdU | indistinguishable from the baseline activity |
| ERQIKIWFQNRRMKWKKGLDEDGLLLFCEGDTIAD (Peptide containing penetratin sequence from Drosophila and random peptide sequence) [*SCR, reference compound] | slight activation | basal DNA synthesis rate similar to that of the vehicle-treated control cells | – | indistinguishable from the baseline activity |
| ERQIKIWFQNRRMKWKKATGCLLDDGLEGLFEDID (ERQIKIWFQNRRMKWKKATGCLLDDGLEGLFEDID-NH2) [*Br1] | slight activation | substantially reduced DNA synthesis activity | progressively reduced ability to incorporate BrdU | indistinguishable from the baseline activity |
